Assay results from patent publication US4107424A, “1-N-[(S)-α-hydroxy-ω-aminoacyl] derivatives of 3',4'-dideoxykanamycin B and 3'-deoxykanamycin B antibiotics” (Zaidan Hojin Biseibutsu Kagaku Kenkyu Kai, priority 1972, dated 1978).
≈ marks a conversion by molar mass, not a printed value.

Experiments:
[1] = test system: Escherichia coli K-12 JR 66/W 677; assay: Minimal inhibitory concentration, agar dilution streak method; assay type: cell-based; settings: Escherichia coli, 18 h, read-out: minimum inhibitory concentrations
Protocol: (§1) *Agar Agar dilution streak method (nutrient agar, 37° C, 18 hours)
(§2) *Agar dilution streak method (nutrient agar, 37° C, 18 hours).

[2] = test system: Escherichia coli K-12 LA 290 R 55; assay: as above; assay type: cell-based; settings: 18 h, read-out: minimum inhibitory concentrations
Protocol: as §1, §2

[3] = test system: Escherichia coli K-12 ML 1629; assay: as above; assay type: cell-based; settings: K12ML1629, nutrient agar, 37° C, 18 hours, drug-resistant strain, read-out: minimum inhibitory concentrations
Protocol: as §1, §2

[4] = test system: Pseudomonas aeruginosa GN 315; assay: as above; assay type: cell-based; settings: GN315, nutrient agar, 37° C, 18 hours, drug-resistant strain, read-out: minimum inhibitory concentrations
Protocol: as §1, §2

[5] = test system: Escherichia coli K-12 ML 1410; assay: as above; assay type: cell-based; settings: K12ML1410, nutrient agar, 37° C, 18 hours, read-out: minimum inhibitory concentrations
Protocol: as §1, §2

[6] = test system: Escherichia coli K-12 W 677; assay: as above; assay type: cell-based; settings: K12W677, nutrient agar, 37° C, 18 hours, read-out: minimum inhibitory concentrations
Protocol: as §1, §2

[7] = test system: Pseudomonas aeruginosa A 3; assay: as above; assay type: cell-based; settings: A3, nutrient agar, 37° C, 18 hours, read-out: minimum inhibitory concentrations
Protocol: as §1, §2

[8] = test system: Pseudomonas aeruginosa No.12; assay: as above; assay type: cell-based; settings: nutrient agar, 37° C, 18 hours, read-out: minimum inhibitory concentrations
Protocol: as §1, §2

[9] = test system: Staphylococcus aureus FDA 209P; assay: as above; assay type: cell-based; settings: FDA209P, nutrient agar, 37° C, 18 hours, read-out: minimum inhibitory concentrations
Protocol: as §1, §2

[10] = test system: gram-positive and gram-negative bacteria; assay: Antibacterial activity (in words); assay type: cell-based; settings: for antibacterial activity compared with parent or reference substance: sensitive (and resistant) bacteria; for antibacterial activity: various gram-positive and gram-negative bacteria, including resistant strains
Protocol: [α]D^22 + 38°, (c 0.85, water).

[11] = in vivo; settings: mouse, iv
[12] = test system: mice; assay: Acute intravenous toxicity (LD50) in mice; settings: in words

| Compound | MIC [1] [µg/mL] | MIC [2] [µg/mL] | MIC [3] [µg/mL] | MIC [4] [µg/mL] | MIC [5] [µg/mL] | MIC [6] [µg/mL] | MIC [7] [µg/mL] | MIC [8] [µg/mL] | MIC [9] [µg/mL] | antibacterial activity compared with parent or reference substance [10] | antibacterial activity [10] | LD50 [11] [mg/kg] | toxicity [12] |
| --- | --- | --- | --- | --- | --- | --- | --- | --- | --- | --- | --- | --- | --- |
| CNC[C@H]1O[C@H](O[C@H]2[C@H](O)[C@@H](O[C@H]3O[C@H](CO)[C@@H](O)[C@H](N)[C@H]3O)[C@H](N)C[C@@H]2N)[C@H](N)C[C@@H]1O [3'-deoxy-6'-N-methylkanamycin B] | 50 (≈ 104 µM) | 50 (≈ 104 µM) | 1.56 (≈ 3.24 µM) | 6.25 (≈ 13 µM) | – | – | – | – | – | – | – | – | – |
| NC[C@H]1O[C@H](O[C@H]2[C@H](O)[C@@H](O[C@H]3O[C@H](CO)[C@@H](O)[C@H](N)[C@H]3O)[C@H](N)C[C@@H]2N)[C@H](N)C[C@@H]1O [3'-deoxykanamycin B] | 50 (≈ 107 µM) | 50 (≈ 107 µM) | 0.78 (≈ 1.67 µM) | 100 (≈ 214 µM) | – | – | – | – | – | – | – | – | – |
| NC[C@H]1O[C@H](O[C@H]2[C@H](O[C@@H]3O[C@H](CO)[C@@H](O)[C@H]3O)[C@@H](O)[C@H](N)C[C@@H]2N)[C@H](N)C[C@@H]1O [3'-deoxyribostamycin] | > 100 | > 100 | > 100 | > 100 | – | – | – | – | – | – | – | – | – |
| NCC[C@H](O)C(=O)N[C@@H]1C[C@H](N)[C@@H](O[C@H]2O[C@H](CN)[C@@H](O)C[C@H]2N)[C@H](O)[C@H]1O[C@H]1O[C@H](CO)[C@@H](O)[C@H](N)[C@H]1O [AHB-deoxykanamycin B, 1-N-[(S)-4-amino-2-hydroxybutyryl]-3'-deoxykanamycin B] | 3.12 (≈ 5.49 µM) | 0.78 (≈ 1.37 µM) | 0.78 (≈ 1.37 µM) | 50 (≈ 87.9 µM) | 0.78 (≈ 1.37 µM) | 1.56 (≈ 2.74 µM) | 0.78 (≈ 1.37 µM) | 0.78 (≈ 1.37 µM) | 0.78 (≈ 1.37 µM) | antibacterial activity as high as that of their parent substances | high antibacterial activity against the kanamycin-resistant strains | > 100 | toxicity as low as that of their parent substances |
| NCC[C@H](O)C(=O)N[C@@H]1C[C@H](N)[C@@H](O[C@H]2O[C@H](CN)[C@@H](O)C[C@H]2N)[C@H](O)[C@H]1O [AHB-deoxyneamine, 1-N-[(S)-4-amino-2-hydroxybutyryl]-3'-deoxyneamine] | 6.25 (≈ 15.3 µM) | 6.25 (≈ 15.3 µM) | 6.25 (≈ 15.3 µM) | > 100 | 6.25 (≈ 15.3 µM) | 6.25 (≈ 15.3 µM) | 6.25 (≈ 15.3 µM) | 6.25 (≈ 15.3 µM) | 3.12 (≈ 7.66 µM) | antibacterial activity as high as that of their parent substances | high antibacterial activity against the kanamycin-resistant strains | > 100 | toxicity as low as that of their parent substances |
| NCC[C@H](O)C(=O)N[C@@H]1C[C@H](N)[C@@H](O[C@H]2O[C@H](CN)[C@@H](O)C[C@H]2N)[C@H](O[C@@H]2O[C@H](CO)[C@@H](O)[C@H]2O)[C@H]1O [AHB-deoxyribostamycin, 1-N-[(S)-4-amino-2-hydroxybutyryl]-3'-deoxyribostamycin] | 3.12 (≈ 5.78 µM) | 1.56 (≈ 2.89 µM) | 1.56 (≈ 2.89 µM) | > 100 | 0.78 (≈ 1.45 µM) | 0.78 (≈ 1.45 µM) | 1.56 (≈ 2.89 µM) | 3.12 (≈ 5.78 µM) | 1.56 (≈ 2.89 µM) | antibacterial activity as high as that of their parent substances | high antibacterial activity against the kanamycin-resistant strains | > 100 | toxicity as low as that of their parent substances |
